According to patent publication US20140045908A1, “HSP90 INHIBITORY COMPOUNDS IN TREATING JAK/STAT SIGNALING-MEDIATED CANCERS” (SYNTA PHARMACEUTICALS CORP., priority 2011, published 2014):

Tested on: Cdk1, phospho-Chk2, cyclins in HEL92.1.7 cells
Assay: Western blot of cell cycle proteins in HEL92.1.7 cells
Format: cell-based, human
Method: Cells were harvested at the indicated time points and the levels of total and phospho-Cdk1, phospho-Chk2 and GAPDH analyzed by western blot.
FIG. 12 illustrates the effects of ganetespib on JAK/STAT and cell cycle protein expression. HEL92.1.7 cells were treated with 100 nM ganetespib and subject to western blot to determine the levels of Cdk1, cyclin B1, cyclin A1, JAK2, total and phospho-STAT3, and GAPDH at hourly intervals over an 11 h time course.
Cells were disrupted in lysis buffer (CST) and solubilized in 2% SDS. Xenograft tumors (average volume of 100-200 mm3) were excised, cut in half, and flash frozen in liquid nitrogen. Each tumor fragment was lysed in 0.5 mL of lysis buffer using a FastPrep-24 homogenizer and Lysing Matrix A (MP Biomedicals, Solon, Ohio, USA) and lysates clarified by centrifugation. Equal amounts of proteins were resolved by SDS-PAGE and immunoblotted with indicated antibodies. The antigen-antibody complex was visualized and quantitated using an Odyssey system (LI-COR, Lincoln, Nebr., USA).

CC(C)c1cc(-c2nnc(O)n2-c2ccc3c(ccn3C)c2)c(O)cc1O [ganetespib, 3-(2,4-dihydroxy-5-isopropyl-phenyl)-4-(1-methyl-indol-5-yl)-5-hydroxy-[1,2,4] triazole]
level of phospho-Chk2: reduced | cyclins A1 and B1 levels (100 nM, 11 h time course): temporal accumulation of cyclins A1 and B1 | Cdk1 protein expression (ganetespib 250 nM or P6 1000 nM, 24-48 h): Reduced protein levels
